Test results reported in patent publication US9617276B2, “Compounds and methods for treating AIDS and HIV infections” (priority 2009, dated 2017).
Like-named read-outs stand apart in the source and are kept apart here.

Tests used:
HIV-1LAI = assay: drug susceptibility, MT-2 cells, MTT assay, HIV-1LAI; type: cell-based; details: for EC50: Human immunodeficiency virus 1, MT2, MT-2 cells, MTT assay, mean ± 1 SD, read-out: EC50 (μM) for HIV-1LAI
Procedure: (§1) All assays were performed in duplicate or triplicate. […] All assays were performed in duplicate or triplicate.
(§2) Each selectivity index denotes a ratio of CC50 to EC50 against HIV-1LAI N.D., not done.

HIV-2EHO = assay: drug susceptibility, MT-2 cells, MTT assay, HIV-2EHO; type: cell-based; details: Human immunodeficiency virus 2, MT2; MT-2 cells, MTT assay, mean ± 1 SD; read-out: EC50 (μM) for HIV-2EHO
Procedure: as §1, §2

HIV-2ROD = assay: drug susceptibility, MT-2 cells, MTT assay, HIV-2ROD; type: cell-based; details: Human immunodeficiency virus 2, MT2; MT-2 cells, MTT assay, mean ± 1 SD; read-out: EC50 (μM) for HIV-2ROD
Procedure: as §1, §2

cytotoxicity CC50 = type: cell-based, Human; details: human
HIV-1NL4-3 = assay: p24 Gag inhibition in MT-4 cells, HIV-1NL4-3; type: cell-based
Procedure: as §1

HIV-1216-P50 = assay: microbe, parasite or virus in culture; type: cell-based, HIV-1; details: for EC50: Human immunodeficiency virus 1, MT4, read-out: EC50 (μM), HIV-1216-p50; for n-fold change in EC50, HIV-1216-p50: compared to wild-type HIV-1NL4-3
Procedure: Briefly, MT-2 cells (2×10^4/ml) were exposed to 100 50% tissue culture infectious doses (TCID50S) of HIV-1LAI, in the presence or absence of various concentrations of drugs in 96-well microculture plates and were incubated at 37° C. for 7 days. After 100 μl of the medium was removed from each well, 3-(4,5-dimetylthiazol-2-yl)-2,5-diphenyltetrazolium bromide (MTT) solution (10 μl, 7.5 mg/ml in phosphate-buffered saline) was added to each well in the plate, followed by incubation at 37° C. for 3 h. […] All assays were performed in duplicate or triplicate. […] To determine the drug susceptibility of certain laboratory HIV-1 strains, MT-4 cells were used as target cells. In brief, MT-4 cells (10^5/ml) were exposed to 100 TCID50S of drug-resistant HIV-1 strains in the presence or absence of various concentrations of drugs and on day 7 of culture, the supernatant was harvested and the amounts of p24 Gag protein were determined. […] All assays were performed in duplicate or triplicate.
Numbers in parentheses represent n-fold changes in EC50s for each isolate compared to the EC50s for wild-type HIV-1NL4-3.

[1] = test system: HIV-1ERS104pre (wild-type); assay: p24 Gag inhibition in PHA-PBMCs, HIV-1ERS104pre; type: cell-based; details: mean ± 1 SD
Procedure: (§3) The susceptibility of HIV-1LAI and primary HIV-1 isolates to various drugs were determined as described previously (Koh et al. 2003 Antimicrob Agents Chemother 47:3123-9). Briefly, MT-2 cells (2×10^4/ml) were exposed to 100 50% tissue culture infectious doses (TCID50S) of HIV-1LAI, in the presence or absence of various concentrations of drugs in 96-well microculture plates and were incubated at 37° C. for 7 days. After 100 μl of the medium was removed from each well, 3-(4,5-dimetylthiazol-2-yl)-2,5-diphenyltetrazolium bromide (MTT) solution (10 μl, 7.5 mg/ml in phosphate-buffered saline) was added to each well in the plate, followed by incubation at 37° C. for 3 h. […] All assays were performed in duplicate or triplicate. To determine the susceptibility of primary HIV-1 isolates to drugs, phytohemagglutinin-activated peripheral blood mononuclear cells (PHA-PBMCs; 106/ml) were exposed to 50 TCID50S of each. The target cells were exposed to HIV-1104pre or drug-resistant HIV-1 in the presence or absence of various concentrations of drugs and were incubated for 7 days. Upon the conclusion of the culture, the amounts of p24 Gag protein in the supernatants were determined using a fully automated chemiluminescent enzyme immunoassay system (Lumipulse F; Fujirebio Inc., Tokyo, Japan) (Maeda et al. 2001 J Biol Chem 276:35194-200). To determine the drug susceptibility of certain laboratory HIV-1 strains, MT-4 cells were used as target cells. In brief, MT-4 cells (10^5/ml) were exposed to 100 TCID50S of drug-resistant HIV-1 strains in the presence or absence of various concentrations of drugs and on day 7 of culture, the supernatant was harvested and the amounts of p24 Gag protein were determined. […] All assays were performed in duplicate or triplicate.
(§4) These clinical strains contained 9 to 14 amino acid substitutions in the protease-encoding region, which have reportedly been associated with HIV-1 resistance to various PIs.
(§5) Amino acid substitutions identified in the protease-encoding region compared to the consensus type B sequence cited from the Los Alamos database include L63P in HIV-1ERS104pre; L10I, K14R, L33I, M36I, M46I, F53I, K55R, I62V, L63P, A71V, G73S, V82A, L90M, and I93L in HIV-1MDR/B; L10I, I15V, K20R, L24I, M36I, M46L, I54V, I62V, L63P, K70Q, V82A, and L89M in HIV-1MDR/C; L10I, V11I, T12E, I15V, L19I, R41K, M46L, L63P, A71T, V82A, and L90M in HIV-1MDR/G; L10I, K14R, R41K, M46L, I54V, L63P, A71V, V82A, L90M, I93L in HIV-1MDR/TM; L10I, K43T, M46L, I54V, L63P, A71V, V82A, L90M, and Q92K in HIV-1MDR/MM; L10I, L24I, I33F, E35D, M36I, N37S, M46L, I54V, R57K, I62V, L63P, A71V, G73S, and V82A in HIV-1MDR/JSL. HIV-1ERS104pre served as a source of wild-type HIV-1. EC50s were determined by using PHA-PBMs as target cells, and inhibition of p24 Gag protein production by each drug was used as an end point. Numbers in parentheses represent n-fold changes of EC50s for each isolate compared to EC50s for wild-type HIV-1ERS104pre.

HIV-1MDR/B = type: cell-based; details: for EC50 (μM), HIV-1MDR/B (SI): PHA-PBMCs, p24 Gag; for n-fold change of EC50, HIV-1MDR/B: compared to wild-type HIV-1ERS104pre
Procedure: as §3, §4, §5

HIV-1MDR/C = type: cell-based; details: for EC50 (μM), HIV-1MDR/C (SI): PHA-PBMCs, p24 Gag; for n-fold change of EC50, HIV-1MDR/C: compared to wild-type HIV-1ERS104pre
Procedure: as §3, §4, §5

HIV-1MDR/G = type: cell-based; details: for EC50 (μM), HIV-1MDR/G (SI): PHA-PBMCs, p24 Gag; for n-fold change of EC50, HIV-1MDR/G: compared to wild-type HIV-1ERS104pre
Procedure: as §3, §4, §5

HIV-1MDR/TM = type: cell-based; details: for EC50 (μM), HIV-1MDR/TM (SI): PHA-PBMCs, p24 Gag; for n-fold change of EC50, HIV-1MDR/TM: compared to wild-type HIV-1ERS104pre
Procedure: as §3, §4, §5

[2] = Human immunodeficiency virus 1, MT4, Table 7, mean ± 1 SD, read-out: EC50 (μM), HIV-1NL4-3
[3] = Human immunodeficiency virus 1, MT4, Table 9, mean ± 1 SD, read-out: EC50 (μM), HIV-1NL4-3

CC(C)CN(C[C@@H](O)[C@H](Cc1ccccc1)NC(=O)O[C@H]1CCOC1)S(=O)(=O)c1ccc(N)cc1 [APV, Amprenavir]
EC50 (HIV-1LAI): 0.024 ± 0.008 µM | EC50 (HIV-2EHO): 0.12 ± 0.03 µM | EC50 (HIV-2ROD): 0.42 ± 0.1 µM | CC50 (cytotoxicity CC50; MT-2 cells, read-out: CC50): > 100 µM | EC50 (HIV-1NL4-3; [2]): 0.034 ± 0.001 µM | EC50 (HIV-1NL4-3; [3]): 0.032 ± 0.001 µM | EC50 (HIV-1216-P50): 0.26 ± 0.03 µM

COC(=O)N[C@H](C(=O)N[C@@H](Cc1ccccc1)[C@@H](O)CN(Cc1ccc(-c2ccccn2)cc1)NC(=O)[C@@H](NC(=O)OC)C(C)(C)C)C(C)(C)C [AZV, Atazanavir]
EC50 (HIV-1NL4-3; Human immunodeficiency virus 1, MT4, read-out: EC50 (μM), HIV-1NL4-3, Table 7, mean ± 1 SD): 0.004 ± 0.0004 µM | EC50 (HIV-1NL4-3; Human immunodeficiency virus 1, MT4, read-out: EC50 (μM), HIV-1NL4-3, Table 9, mean ± 1 SD): 0.0032 ± 0.0001 µM | EC50 (μM), HIV-1ERS104pre (wild-type SI) [1]: 0.002 ± 0.001 µM | EC50 (μM), HIV-1MDR/B (SI) (HIV-1MDR/B): 0.20 ± 0.10 µM | n-fold change of EC50, HIV-1MDR/B (HIV-1MDR/B): (100) | EC50 (μM), HIV-1MDR/C (SI) (HIV-1MDR/C): 0.065 ± 0.008 µM | n-fold change of EC50, HIV-1MDR/C (HIV-1MDR/C): (33) | EC50 (μM), HIV-1MDR/G (SI) (HIV-1MDR/G): 0.033 ± 0.024 µM | n-fold change of EC50, HIV-1MDR/G (HIV-1MDR/G): (17) | EC50 (μM), HIV-1MDR/TM (SI) (HIV-1MDR/TM): 0.065 ± 0.008 µM | n-fold change of EC50, HIV-1MDR/TM (HIV-1MDR/TM): (33) | EC50 (HIV-1216-P50): 0.014 ± 0.003 µM | n-fold change in EC50, HIV-1216-p50 (HIV-1216-P50): (4)

Cc1cccc(C)c1OCC(=O)N[C@@H](Cc1ccccc1)[C@@H](O)C[C@H](Cc1ccccc1)NC(=O)[C@H](C(C)C)N1CCCNC1=O [LPV, lopinavir]
EC50 (HIV-1LAI): 0.039 ± 0.006 µM | Selectivity Index (HIV-1LAI; ratio of CC50 to EC50 against HIV-1LAI): >2,560 | EC50 (HIV-2EHO): 0.035 ± 0.025 µM | EC50 (HIV-2ROD): 0.028 ± 0.004 µM | CC50 (cytotoxicity CC50): > 100 µM | EC50 (HIV-1NL4-3; [2]): 0.046 ± 0.025 µM | EC50 (HIV-1NL4-3; [3]): 0.035 ± 0.004 µM | EC50 (μM), HIV-1ERS104pre (wild-type SI) [1]: 0.034 ± 0.002 µM | EC50 (μM), HIV-1MDR/B (SI) (HIV-1MDR/B): > 1 µM | n-fold change of EC50, HIV-1MDR/B (HIV-1MDR/B): > 29 | EC50 (μM), HIV-1MDR/C (SI) (HIV-1MDR/C): > 1 µM | n-fold change of EC50, HIV-1MDR/C (HIV-1MDR/C): > 29 | EC50 (μM), HIV-1MDR/G (SI) (HIV-1MDR/G): 0.26 ± 0.04 µM | n-fold change of EC50, HIV-1MDR/G (HIV-1MDR/G): (8) | EC50 (μM), HIV-1MDR/TM (SI) (HIV-1MDR/TM): > 1 µM | n-fold change of EC50, HIV-1MDR/TM (HIV-1MDR/TM): > 29 | EC50 (HIV-1216-P50): 0.19 ± 0.06 µM | n-fold change in EC50, HIV-1216-p50 (HIV-1216-P50): (5)
